In a melting point compilation (Tetko et al.; mined from patent text by program, amines drawn as free bases though some values may be those of a salt):

melting point [°C] | SMILES
162 to 163 | Cn1c(COc2ccc(CC3SC(=O)NC3=O)cc2)nc2ccc(Oc3cccc(NC(=O)Nc4cccc(C(F)(F)F)c4)c3)cc21 (stereo not drawn)
142 to 143 | CCOC(=O)COc1cc(O)c(C(=O)CN2Cc3cc(C(N)=S)ccc3C2=O)cc1OCC(=O)OCC
100 to 101 | CCc1cc([N+](=O)[O-])c(N)cc1Cl
62 to 64 | CCOC(=O)c1[nH]cc(C)c1-c1ccccc1
305 to 306 | O=[N+]([O-])c1cc(-c2nnc(Nc3ccc(Cl)c(Cl)c3)s2)cc([N+](=O)[O-])c1
276 | COc1ccc(-c2ccccc2)cc1NC(=O)c1ncc[nH]1
193 to 197 | COc1ccc2nc(SC(C#N)c3ncc(C)c(OC)c3C)[nH]c2c1 (stereo not drawn)
200 to 202 | O=c1c(CO)coc2cc(OCCCN3CCC(c4noc5cc(F)ccc45)CC3)ccc12
96 to 98 | CCOC(=O)C1=C(COCCNCC(=O)OC)NC(C)=C(C(=O)OC)C1c1cccc(Cl)c1Cl (stereo not drawn)
65.5 to 67.5 | COC(=O)c1ccc(C(=O)C=C(c2cc(Cl)cc(Cl)c2)C(F)(F)F)cc1
164 to 165 | Cn1nc(C(F)(F)F)cc1Oc1cc(C#N)cc(-c2cc(C(F)(F)F)nn2C)n1
65 to 66 | COCC(=O)c1cnc(C2OCCO2)s1
233 to 235 | Cc1c(C#N)c(N)n(-c2ccccc2Br)c1C
237 to 239 | Cn1cc(C(=O)NCc2ccc(Cl)cc2)c(=O)c2cc(CCl)cc(I)c21
146 to 148 | CC(=O)Cc1cc2c(cc1C(=O)c1ccc([N+](=O)[O-])c(C)c1)OCO2
206 to 208 | CCCc1c(S)ccc2c(=O)cc(C(=O)O)oc12
161 to 162 | C=C1CC(C)(COc2cc(=O)oc3ccccc23)OC1=O (stereo not drawn)
134 to 135 | CCOC(=O)CCC(Oc1cc(OCc2ccsc2)ccc1C(N)=S)c1ccccc1C (racemic)
61 | N#CC(=Cc1ccc(CBr)cc1)c1ccccc1
179 to 180 | CCC(=Cc1ccc(C(=O)O)cc1Cl)[N+](=O)[O-]
166 to 167 | CCOC(=O)c1c(C(C)(C)O)nc(CC)n1Cc1ccc(-c2ccccc2-c2nnn[nH]2)cc1
204 to 205 | O=c1c(O)c(-c2ccccn2)oc2ccc(OCc3ccc(F)cc3)cc12
221 to 222 | Cc1ccc(CC2CCN(C(=O)C(=O)Nc3ccc4[nH]c(=O)sc4c3)CC2)cc1
130 | CC1=CC2=C(N3CN(n4cc(C)nc4-c4cc(Cl)ccc4Cl)C=C3N=N2)N(c2cc(Cl)ccc2Cl)C1

melting point [°C] | SMILES
131 to 133 | CC1C(=O)CSCC1=O
220 to 222 | N#CC(N)=C(C#N)N=Cc1cnn(-c2ncc(C(F)(F)F)cc2Cl)n1
188 to 189 | CCCC1N=C2C(=C(C)C(Cl)=NC2(N)CCOCCNC(=O)c2ccccc2)N1 (stereo not drawn)
204 to 208 | CC1CSc2c(-c3ccccc3)c3ccccc3c(=O)n21 (stereo not drawn)
66 to 68 | COCCN(C1CC(C)(C)Oc2ccc(OCc3ccccc3)cc21)S(C)(=O)=O (stereo not drawn)
232 to 235 | S=C1NCC(Cn2cncn2)(c2ccc(Cl)cc2Cl)O1 (stereo not drawn)
135 to 138 | COc1cc2ncc(C#N)c(Nc3ccc(F)c(Cl)c3)c2cc1NC(=O)C=CCN1CCSC1
193 to 195 | CCCCCN1C(=O)C(O)(c2cc3c(cc2O)OCO3)c2cnccc21 (stereo not drawn)
178 | CN(C)c1cccc2c(S(=O)(=O)Nc3ncc(Br)nc3Br)cccc12
288 to 289 | O=c1[nH]c(=Cc2cccs2)c(=O)[nH]c1=Cc1ccc2ccccc2n1
94 to 98 | C=C(C)c1cc(-c2ccc(OCCNC(N)=O)cc2)n(-c2ccc(OC)nc2)n1
181 to 183 | COc1cc(N)c(Cl)cc1C(=O)CC(O)c1ccncc1 (stereo not drawn)
124 to 126 | Cc1nc(Cl)c(-c2ccc(F)cc2)n1-c1ccc(Cl)cc1
154 to 157 | S=C1CCNc2ccccc2N1
140 to 141 | CC1Nc2ccccc2N(Cc2ccccc2)C(=O)C1Cc1ccccc1 (stereo not drawn)
125 to 128 | COCc1cc([N+](=O)[O-])ccc1N1C(=O)c2ccc(Cl)cc2C1=O
109 to 111 | CCOC(=O)CC(c1ccccc1)c1ccc(NC(=O)NCCCl)cc1 (stereo not drawn)
154 to 156 | COc1cc2cnnc(N3CCC(CC(C)O)CC3)c2cc1OC (stereo not drawn)
247 to 248 | C[C@]12CCC(=O)N[C@@H]1CCc1cc(-c3cccc4ccccc34)ccc12
80 to 81 | CCOC(=O)C(C)c1csc(=Nc2ccccc2)n1C (stereo not drawn)
132 to 136 | CC1=CC(NC(=O)OC(C)(C)C)C(C(=O)O)CC1 (stereo not drawn)
178 to 183 | CC(C)C(C(=O)O)N1CC(N)C1=O (stereo not drawn)
130 to 133 | Cc1cccc(NCCNc2cccc(C)c2C)c1C
105 to 106 | CC(=O)OC1C=CC2(C)C(=CCC3C2CCC2(C)C3CCC23OCCO3)C1 (stereo not drawn)

melting point [°C] | SMILES
182 to 183 | COc1cc(C(=O)N2CCN(c3ccc(N)cc3)CC2)cc(OC)c1O
67 to 70 | CC(C)(CN)c1ccc(C(=O)NCCc2ccc3[nH]cc(C(=N)N)c3c2)cc1
102 to 104 | CNc1nc(-c2cccc(C#Cc3ccccc3)c2)c2cc(OC)c(OC)cc2n1
259 to 260 | COC1=NC2OC(C(O)c3ccc(Cl)cc3Cl)=C(N)C2C=C1 (stereo not drawn)
126 | CC(=O)OCc1csc(-c2nc3n(c2-c2ccncc2)CCC3)c1
133 to 136 | COP(=O)(CN[C@@H](Cc1ccc(-c2ccccc2)cc1)C(=O)O)OC
117 to 119 | CCOC(=O)c1cn(CC(I)=C(I)I)c(Cl)c1Cl
200 to 202 | COc1cc(Nc2c(C#N)cnc3cc(Br)ccc23)c(Cl)cc1F
160 to 162 | COc1ccc(-c2[nH]cnc2-c2cc(OC)c(Br)c(OC)c2)cc1N
235 to 237 | NS(=O)(=O)c1ccc(-c2nn3c(-c4ccc(F)cc4)coc3c2-c2ccc(F)cc2)cc1
219 to 220 | CC(C)Cn1c(CNC(=O)OC(C)(C)C)c(-c2ccccc2)c2cc(OC(C)(C)C(=O)O)ccc2c1=O
300 to 302 | CCOc1ccccc1C=C1CCc2c1oc1ccc(C(=O)O)cc1c2=O
250 to 252 | Cc1cc(C)c2nc(C3CC3)n(Cc3ccc(C4(C(=O)O)Cc5ccccc5C4)s3)c2n1
214 to 216 | Cc1ccc(-c2ccc3c(c2)C=C(C(=O)Nc2ccc(-c4cccnc4)cc2)CCO3)cc1
86.5 to 87 | COC(=O)Nc1cc(C(C)(C)C)no1
103 | CCOC(=O)C1=C(N2CCCC2)N=C(C)C(C(=O)OC)C1c1cccc([N+](=O)[O-])c1 (stereo not drawn)
160 | C=COC(=O)N1C[C@@H]2SCCC(c3ccccc3)(c3ccccc3)[C@@H]2C1 (racemic)
198 to 200 | N#Cc1ccc(Oc2ncccc2C(=O)O)cc1
116 | O=c1nc(-c2ccnc(OCc3ccccc3)c2)sc2ccccc12
106 to 107 | CCCCCCCCOC(=O)NCCCCCCNC(=O)OCCCCCCCC
284 to 286 | Cc1nc2c3cccc(Cl)c3ccn2c1CC(N)=O
> 260 | O=c1[nH]c2ccccc2c2c(=O)n(-c3ccccc3)[nH]c12
207 to 209 | Cc1cc(OC(F)F)ccc1NC(=O)c1cccc(I)c1C(=O)NC(C)C
149 to 151 | CCCCc1nc2c(C)cnc(C(=O)OC)c2n1Cc1ccc(-c2ccccc2-c2nnn[nH]2)cc1

melting point [°C] | SMILES
96 to 99 | COc1ccc(OC)c(C2Nc3ccccc3S2)c1 (stereo not drawn)
134 to 137 | CC(Oc1cc(Oc2ccc(C(F)(F)F)cc2Cl)ccc1C#N)C(N)=O (stereo not drawn)
167 to 169 | COc1ccc([N+](=O)[O-])c(CS(=O)(=O)c2ccccc2)c1
130 to 132 | Cc1nc(N2CCN(C(=O)c3ccc(F)cc3)C2=O)sc1C(=O)NCc1ccccc1
136 to 137 | O=C(NCCO)c1cccc(-c2cccc3cn(Cc4cccc(C(F)(F)F)c4)nc23)c1
234 to 235 | CS(=O)(=O)NCCCCn1c(-c2ccccc2)nc2c(N)nc3ccccc3c21
128 to 130 | CN1CCN(Cc2cccc(-c3cc4c(Nc5ccc6[nH]ccc6c5)c(C#N)cnc4s3)c2)CC1
191 to 192 | Cn1cc(C(=O)CCC(=O)O)nc1-c1ccccc1
129 to 130 | Cc1oc(-c2ccccc2)nc1COc1ccc(I)cn1
136 to 141 | O=C(NC(=S)Nc1cc(Cl)cc(C(F)(F)F)c1Cl)c1c(F)cccc1F
120 to 123 | C=CCn1nc(-c2cc(C(C)(C)C)c(O)c(C(C)(C)C)c2)c2cccnc21
49 to 51 | CN(C)C=C1CCc2ccn(C)c2C1=O
102 to 104 | CC1CC(C)CN(c2nccc(Oc3ccc(NC(=O)c4cc(F)cc(N5CCOCC5)c4)c4ccccc34)n2)C1 (stereo not drawn)
216 | CCOC(=O)c1[nH]c2cc3[nH]c(C)c(C(=O)OCC)c3c(C)c2c1C
316 to 318 | CC(C)Oc1ccccc1-c1nc2ccc(C(=O)O)cc2c(=O)[nH]1
187 to 188 | CCc1ccc(C2CCC(c3ccc(O)cc3)(c3ccc(O)cc3)CC2)cc1
166 | C/C(=N/O)[C@@H]1C[C@H](C(=O)OC(C)(C)C)N(C(=O)CNC(=O)Nc2cccc(C)c2)[C@@H]1c1ccccc1 (racemic)
203 to 204 | COc1ccc(C(=O)NCc2ccc(Br)cc2F)c(OCC(=O)O)c1
180 to 192 | CC(C)C1N(C)CCCN1C(=O)NC(C)C1CC(N=C=O)CC(C)(C)C1 (stereo not drawn)
101 to 102 | CC(C)C1CCC(C)(OC(=O)OC2(C)CCC(C(C)C)CC2)CC1 (stereo not drawn)
38.7 to 40.1 | CCN(C#N)C(=O)CCCCC(=O)N(C#N)CC

SMILES | melting point [°C]
O=C(COc1ccc(Cl)cc1)CS(=O)(=O)C(c1ccc(Cl)cc1)c1ccc(Cl)cc1 | 105 to 107
O=C1c2c(Cl)cccc2-n2cnc(-c3noc(C(F)(F)F)n3)c2[C@@H]2CCCN12 | 220 to 221
Cc1nnc2n1-c1ccccc1C(c1ccccc1)=NC2NC(=O)Nc1ccc(Cl)cc1 (stereo not drawn) | 292 to 294
CC1=CC(=O)CC2CCC3C4C(C#N)CC(=O)C4(C)CCC3C12C (stereo not drawn) | 193
COc1ccccc1OP(=O)(CN(CC#N)N=O)Oc1ccccc1OC | 83 to 85
